Experimental data reported in ChEMBL document CHEMBL2073887, “Hepatobiliary transport kinetics of HSR-903, a new quinolone antibacterial agent” (Drug Metab Dispos, 1998).

What was measured:
[1] = target: T1, ATP-binding cassette sub-family C member 2 (Rattus norvegicus, UniProt Q63120); assay: TP_TRANSPORTER: biliary excretion in SD rat; type: functional, organism-based, Sprague-Dawley, Bile; settings: in vivo
[2] = target: T1, ATP-binding cassette sub-family C member 2; assay: TP_TRANSPORTER: biliary excretion in EHBR rat; type: functional, organism-based, Bile; settings: in vivo

T1 sequence (Q63120 whole entry): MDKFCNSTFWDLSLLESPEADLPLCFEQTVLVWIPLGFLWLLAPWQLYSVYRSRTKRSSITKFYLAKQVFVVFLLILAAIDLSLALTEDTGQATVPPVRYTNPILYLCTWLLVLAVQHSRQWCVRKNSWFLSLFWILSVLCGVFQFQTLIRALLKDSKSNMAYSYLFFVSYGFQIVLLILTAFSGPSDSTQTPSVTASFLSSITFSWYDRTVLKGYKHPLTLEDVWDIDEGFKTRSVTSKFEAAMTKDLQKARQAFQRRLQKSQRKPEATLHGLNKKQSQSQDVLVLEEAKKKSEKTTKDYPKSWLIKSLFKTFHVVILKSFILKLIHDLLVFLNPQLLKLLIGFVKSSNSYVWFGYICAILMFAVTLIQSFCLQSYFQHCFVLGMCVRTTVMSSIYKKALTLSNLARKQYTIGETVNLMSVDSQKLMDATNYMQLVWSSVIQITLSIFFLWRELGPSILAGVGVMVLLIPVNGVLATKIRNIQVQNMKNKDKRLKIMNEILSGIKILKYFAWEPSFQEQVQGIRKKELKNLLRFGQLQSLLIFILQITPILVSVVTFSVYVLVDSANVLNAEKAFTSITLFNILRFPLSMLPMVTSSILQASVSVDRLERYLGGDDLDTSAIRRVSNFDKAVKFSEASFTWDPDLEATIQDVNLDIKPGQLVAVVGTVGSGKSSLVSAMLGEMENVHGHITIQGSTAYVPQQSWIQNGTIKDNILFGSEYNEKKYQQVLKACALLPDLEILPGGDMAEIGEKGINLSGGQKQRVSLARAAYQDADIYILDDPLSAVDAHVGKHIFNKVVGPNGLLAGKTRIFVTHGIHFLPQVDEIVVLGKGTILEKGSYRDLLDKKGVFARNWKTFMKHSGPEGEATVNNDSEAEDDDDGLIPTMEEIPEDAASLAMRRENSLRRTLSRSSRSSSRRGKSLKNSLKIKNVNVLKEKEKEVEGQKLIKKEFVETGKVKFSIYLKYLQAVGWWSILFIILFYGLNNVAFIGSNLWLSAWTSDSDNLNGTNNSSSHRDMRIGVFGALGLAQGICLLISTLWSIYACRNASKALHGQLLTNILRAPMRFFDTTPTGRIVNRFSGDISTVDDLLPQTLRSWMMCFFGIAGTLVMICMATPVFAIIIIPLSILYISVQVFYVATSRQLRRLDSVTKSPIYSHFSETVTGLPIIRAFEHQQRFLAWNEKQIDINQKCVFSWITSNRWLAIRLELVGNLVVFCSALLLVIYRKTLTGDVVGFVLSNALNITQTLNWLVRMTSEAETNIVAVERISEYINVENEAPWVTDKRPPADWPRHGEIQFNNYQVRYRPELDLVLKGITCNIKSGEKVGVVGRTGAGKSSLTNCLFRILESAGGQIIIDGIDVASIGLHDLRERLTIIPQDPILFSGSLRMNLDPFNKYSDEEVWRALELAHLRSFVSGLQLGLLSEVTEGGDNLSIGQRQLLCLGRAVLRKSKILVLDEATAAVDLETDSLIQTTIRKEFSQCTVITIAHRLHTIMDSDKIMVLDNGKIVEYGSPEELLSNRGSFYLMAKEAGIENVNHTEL

With `CS(=O)(=O)O.Cc1c(N2C[C@@H](N)C3(CC3)C2)c(F)c(N)c2c(=O)c(C(=O)O)cn(C3CC3)c12` the Activity [1] was “substrate [+]” and the Activity [2] was “substrate [+]”.
